One may read the Emax as the maximal effect, on the per cent scale that the assay sets. A word on the EC50: it is the concentration giving half of the maximal effect.

Structures are written as SMILES. Bounds are passed on as bounds.

In one test the target is T1, Human M4 (Homo sapiens, UniProt P08173).
T1 construct: expressed in transfected cells
T1 sequence (P08173 1-479): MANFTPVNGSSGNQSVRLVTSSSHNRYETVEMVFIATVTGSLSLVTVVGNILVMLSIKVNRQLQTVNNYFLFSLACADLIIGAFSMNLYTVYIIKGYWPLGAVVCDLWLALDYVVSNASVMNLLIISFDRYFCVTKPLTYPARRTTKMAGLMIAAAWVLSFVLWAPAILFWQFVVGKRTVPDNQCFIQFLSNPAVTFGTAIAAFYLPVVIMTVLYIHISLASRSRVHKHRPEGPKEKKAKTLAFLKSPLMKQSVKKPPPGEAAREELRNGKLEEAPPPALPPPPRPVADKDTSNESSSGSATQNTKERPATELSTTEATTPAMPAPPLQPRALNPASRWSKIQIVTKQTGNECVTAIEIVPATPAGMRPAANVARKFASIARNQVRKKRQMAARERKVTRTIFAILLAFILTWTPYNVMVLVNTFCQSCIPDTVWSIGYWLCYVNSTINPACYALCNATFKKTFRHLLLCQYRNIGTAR
Kind of test: M4 cell-based functional assay, calcium mobilization, potentiation of ACh EC20. The settings on record: for Emax at 30 µM: % ACh maximum at 30 μM; for EC50: CHO-K1 hM4-Gqi5 cells, calcium flux, ACh EC20. How it is done: Human and rat M4 cDNAs, along with the chimeric G protein Gqi5, were transfected into Chinese hamster ovary (CHO-K1) cells purchased from the American Type Culture Collection using Lipofectamine2000. The transfected cells were subjected to selection antbiotic treatment to generate stable cell lines; G418 sulfate (1 mg/ml) for selecting M4 expressing cells and Hygromycin B (500 μg/mL) for selecting Gqi5 expressing cells. The resulting polyclones were further screened to obtain monoclones of hM4-Gqi5 and rM4-Gqi5 for compound screening assay. Stable monoclone cells were maintained in Ham's F-12 medium containing 10% heat-inactivated fetal bovine serum (FBS), 1× Antibiotic/Antimycotic, 20 mM HEPES, 500 μg/mL G418 sulfate, and 200 μg/mL Hygromycin B in 37° C. humidified incubators in the presence of 5% CO2.
(§1) The high throughput assay was employed to measure receptor-induced mobilization of intracellular calcium to determine compound activity. Test compound was added to cells expressing the muscarinic receptors that were loaded with calcium sensitive fluorescent dye. After a ˜2.5 minute incubation period, a submaximal (EC20) concentration of acetylcholine was added, and the response measured. This kinetic assay allows for simultaneous screening and potency determination of multiple pharmacological modes of action including agonist and potentiator activity. CHO-K1 cells stably expressing muscarinic receptors were plated in growth medium lacking G418 and hygromycin at 15,000 cells/20 μL/well in Greiner 384-well black-walled, tissue culture (TC)-treated, clear-bottom plates (Greiner Bio-One). Cells were incubated overnight at 37° C. and 5% CO2. The next day, calcium assay buffer (Hank's balanced salt solution (HBSS), 20 mM HEPES, 2.5 mM Probenecid, 4.16 mM sodium bicarbonate (Sigma-Aldrich, St. Louis, MO)) was prepared to dilute compounds, agonists, and Fluo-4-acetomethoxyester (Fluo-4-AM), fluorescent calcium indicator dye. Compounds were serially diluted 1:3 into 10 point concentration response curves in DMSO using the Bravo Liquid Handler (Agilent, Santa Clara, CA), transferred to a 384 well daughter plates using an Echo acoustic liquid handler (Beckman Coulter, Indianapolis, Indiana), and diluted in assay Buffer to a 2× final concentration. The agonist plates were prepared using acetylcholine (ACh, Sigma-Aldrich, St. Louis, MO) concentrations for the EC20 and ECMAX responses by diluting in assay buffer to a 5× final concentration. The 2× dye solution (2.3 μM) was prepared by mixing a 2.3 mM Fluo-4-AM stock in DMSO with 10% (w/v) pluronic acid F-127 in a 1:1 ratio in assay buffer. Using a microplate washer (BioTek, Winooski, VT), cells were washed with assay buffer for 3 times to remove medium. After the final wash, 20 μL of assay buffer remained in the cell plates. Immediately, 20 μL of the 2× dye solution (final 1.15 μM) was added to each well of the cell plate using a Multidrop Combi dispenser (Thermo Fisher, Waltham, MA). After cells were incubated with the dye solutions for 45 min at 37° C. in the presence of 5% CO2, the dye solutions were removed and replaced with assay buffer using a microplate washer, leaving 20 μL of assay buffer in the cell plate.
The prepared compound, agonist, and cell plates were placed inside the Functional Drug Screening System uCell (FDSS uCell, Hamamatsu, Japan) to measure the calcium flux. The triple add protocol was used to measure Ca kinetics; Compound, ACh for EC20, and ACh for EC80 adds in an order. Briefly, after establishment of a fluorescence baseline for 2 seconds (excitation, 480 nm; emission, 530 nm), first add occurred by adding 20 μL of test compound to the cells, and the response was measured for 140 seconds. This is followed by second add; 10 μL (5×) of an EC20 concentration of ACh agonist was added to the cells, and the response of the cells was measured for 125 seconds. […]
(Calcium assays in cells follow changes in intracellular calcium, usually with a dye or a luminescent sensor.)

The target of a further test is T2, Human M2 (Homo sapiens, UniProt P08172).
T2 construct: expressed in transfected cells; host or cells: CHO-K1
T2 sequence (P08172 1-466): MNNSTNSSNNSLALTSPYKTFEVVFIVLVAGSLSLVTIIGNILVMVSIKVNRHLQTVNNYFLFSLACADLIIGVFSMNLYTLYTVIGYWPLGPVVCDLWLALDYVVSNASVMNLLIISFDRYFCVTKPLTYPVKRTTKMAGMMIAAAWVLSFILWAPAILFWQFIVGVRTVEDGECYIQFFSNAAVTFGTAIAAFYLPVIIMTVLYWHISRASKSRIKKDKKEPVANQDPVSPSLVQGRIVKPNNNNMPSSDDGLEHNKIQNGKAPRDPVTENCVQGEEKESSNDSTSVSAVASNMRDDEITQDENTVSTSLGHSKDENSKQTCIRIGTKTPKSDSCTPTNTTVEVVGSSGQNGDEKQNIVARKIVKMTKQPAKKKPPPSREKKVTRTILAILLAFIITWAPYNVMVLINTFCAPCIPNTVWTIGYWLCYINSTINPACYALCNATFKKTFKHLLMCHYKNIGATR
Kind of test: M2 cell-based functional assay, calcium mobilization (selectivity). The settings on record: for Emax at 30 µM: % ACh maximum at 30 μM; for EC50: M2 cell-based functional assay, calcium flux. How it is done: as §1
The prepared compound, agonist, and cell plates were placed inside the Functional Drug Screening System uCell (FDSS uCell, Hamamatsu, Japan) to measure the calcium flux. The triple add protocol was used to measure Ca kinetics; Compound, ACh for EC20, and ACh for EC80 adds in an order. Briefly, after establishment of a fluorescence baseline for 2 seconds (excitation, 480 nm; emission, 530 nm), first add occurred by adding 20 μL of test compound to the cells, and the response was measured for 140 seconds. This is followed by second add; 10 μL (5×) of an EC20 concentration of ACh agonist was added to the cells, and the response of the cells was measured for 125 seconds. Immediately, the third add occurred by adding […] (5×) of an EC80 concentration of ACh and the response of the cells was measured for 90 seconds. Acetylcholine-mediated maximum response (ECmax) was measured by adding 1 mM ACh as third add in the control wells. DMSO vehicle was added to the control wells in the first add for assessing ACh EC20, EC80, and ECmax responses. Calcium fluorescence was recorded as fold over basal fluorescence and raw data were normalized to the maximal response to ACh agonist. Agonist activity was analyzed as a concentration-dependent increase in calcium mobilization upon compound addition. Positive allosteric modulator activity was analyzed as a concentration-dependent increase in the EC20 acetylcholine response. Antagonist activity was analyzed as a concentration-dependent decrease in the EC80 acetylcholine response. […]

Consider `[2H]C1([2H])Oc2ccc(OC3CCN(c4nc5nn([C@@H]6CCOC6)c(=O)n5cc4C)CC3)cc2OC1([2H])[2H]` [Compound A4, (R)-7-(4-((2,3-dihydrobenzo[b][1,4]dioxin-6-yl-2,2,3,3-d4)oxy)piperidin-1-yl)-6-methyl-2-(tetrahydrofuran-3-yl)-[1,2,4]triazolo[4,3-a]pyrimidin-3(2H)-one], for which the figures for the maximal response (Emax) at 30 µM on Human M4 and at Human M2 were 88% and 68%, respectively. Moreover, the figures for the concentration for a half-maximal effect (EC50) at Human M4 and on Human M2 were 9 nM and 1380 nM, respectively.

With `[2H]C1(Oc2ccc3c(c2)OC([2H])([2H])C([2H])([2H])O3)CCN(c2nc3c(cc2C)C(=O)NC3)CC1` [Compound 1, 2-(4-((2,3-dihydrobenzo[b][1,4]dioxin-6-yl-2,2,3,3-d4)oxy)piperidin-1-yl-4-d)-3-methyl-6,7-dihydro-5H-pyrrolo[3,4-b]pyridin-5-one], at Human M4, the Emax at 30 µM was 108% and the 50% effective concentration (EC50) was determined as 3 nM. For the same molecule, at Human M2, the Emax at 30 µM was 69% and the 50% effective concentration (EC50) came out at 346 nM.

Turning to `[2H]C1([2H])Oc2ccc(OC3CCN(c4nc5nn(C(C)COC)c(=O)n5cc4C)CC3)cc2OC1([2H])[2H]` (stereo not shown) [Compound A7, 7-(4-((2,3-dihydrobenzo[b][1,4]dioxin-6-yl-2,2,3,3-d4)oxy)piperidin-1-yl)-2-(1-methoxypropan-2-yl)-6-methyl-[1,2,4]triazolo[4,3-a]pyrimidin-3(2H)-one], the Emax at 30 µM on Human M4 came out at 89%; at Human M2, 47%. Also, the EC50 at Human M4 was 53 nM; at Human M2, > 10000 nM.

In the case of `[2H]C1([2H])Oc2ccc(OC3CCN(c4nc5nn(C)c(=O)n5c5c4CCCC5)CC3)cc2OC1([2H])[2H]` [Compound A15, 5-(4-((2,3-dihydrobenzo[b][1,4]dioxin-6-yl-2,2,3,3-d4)oxy)piperidin-1-yl)-2-methyl-6,7,8,9-tetrahydro-[1,2,4]triazolo[4,3-a]quinazolin-1(2H)-one], the Emax at 30 µM on Human M4 was 83%; at Human M2, 45%. The half-maximal effective concentration (EC50) at Human M4 was found to be 53 nM; at Human M2, 5920 nM.

Turning to `[2H]C1([2H])Oc2ccc(OC3CCN(c4nc5c(cc4C)C(=O)N(C4CC4)C5)CC3)cc2OC1([2H])[2H]` [Compound 6, 6-cyclopropyl-2-(4-((2,3-dihydrobenzo[b][1,4]dioxin-6-yl-2,2,3,3-d4)oxy)piperidin-1-yl)-3-methyl-6,7-dihydro-5H-pyrrolo[3,4-b]pyridin-5-one], the maximal response (Emax) at 30 µM on Human M4 amounted to 78%; on Human M2 it was 64%. Also, the half-maximal effective concentration (EC50) was found to be 9 nM at Human M4 and 867 nM at Human M2.

`[2H]C1([2H])Oc2ccc(OC3CCN(c4nc5nn(CC)c(=O)n5cc4C)CC3)cc2OC1([2H])[2H]` [Compound A2, 7-(4-((2,3-dihydrobenzo[b][1,4]dioxin-6-yl-2,2,3,3-d4)oxy)piperidin-1-yl)-2-ethyl-6-methyl-[1,2,4]triazolo[4,3-a]pyrimidin-3(2H)-one]: the maximal response (Emax) at 30 µM on Human M4 came to 82%; on Human M2 it was 70%. The half-maximal effective concentration (EC50) worked out at 2 nM at Human M4 and 884 nM on Human M2.

As for `[2H]C1([2H])Oc2ccc(OC3CCN(c4nc5nn(C)c(=O)n5c5c4CCC5)CC3)cc2OC1([2H])[2H]` [Compound A14, 5-(4-((2,3-dihydrobenzo[b][1,4]dioxin-6-yl-2,2,3,3-d4)oxy)piperidin-1-yl)-2-methyl-2,6,7,8-tetrahydro-1H-cyclopenta[e][1,2,4]triazolo[4,3-a]pyrimidin-1-one], on Human M4, the Emax at 30 µM was 84% and the EC50 was found to be 3 nM. On Human M2, the Emax at 30 µM was 60% and the EC50 was 2230 nM.

For the molecule `[2H]C1([2H])Oc2ccc(O[C@H]3CCN(c4nc5c(cc4C)C(=O)NC5)[C@H](C)C3)cc2OC1([2H])[2H]` [Compound 4, 2-((2R,4S)-4-((2,3-dihydrobenzo[b][1,4]dioxin-6-yl-2,2,3,3-d4)oxy)-2-methylpiperidin-1-yl)-3-methyl-6,7-dihydro-5H-pyrrolo[3,4-b]pyridin-5-one], on Human M4, the maximal effect (Emax) at 30 µM is 85% and the EC50 is 11 nM. Besides, at Human M2, the Emax at 30 µM stood at 57% and the EC50 amounted to 5870 nM.

Take `[2H]C1([2H])Oc2ccc(OC3CCN(c4nc5c(c(C)c4C)C(=O)N(C)C5)CC3)cc2OC1([2H])[2H]` [Compound 12, 2-(4-((2,3-dihydrobenzo[b][1,4]dioxin-6-yl-2,2,3,3-d4)oxy)piperidin-1-yl)-3,4,6-trimethyl-6,7-dihydro-5H-pyrrolo[3,4-b]pyridin-5-one]: on Human M4, the maximal response (Emax) at 30 µM is 103% and the 50% effective concentration (EC50) was determined as 7 nM. Further, at Human M2, the Emax at 30 µM is 54% and the EC50 is 2380 nM.

In the case of `[2H]C([2H])([2H])n1nc2nc(N3CCC(Oc4ccc5c(c4)OC([2H])([2H])C([2H])([2H])O5)CC3)c(C)c(C)n2c1=O` [Compound A18, 7-(4-((2,3-dihydrobenzo[b][1,4]dioxin-6-yl-2,2,3,3-d4)oxy)piperidin-1-yl)-5,6-dimethyl-2-(methyl-d3)-[1,2,4]triazolo[4,3-a]pyrimidin-3(2H)-one], at Human M4, the maximal effect (Emax) at 30 µM worked out at 98% and the concentration for a half-maximal effect (EC50) turned out to be 3 nM. Further, on Human M2, the Emax at 30 µM came to 53% and the EC50 came out at 1110 nM.

For the origin of these results see patent US12552790B2, “Positive modulators of the muscarinic acetylcholine receptor M4” (Vanderbilt University, priority 2023, dated 2026).
